# Assay results as given in patent US20110028546A1, “NOVEL ANTIMICROBIAL FORMULATIONS INCORPORATING ALKYL ESTERS OF FATTY ACIDS AND NANOEMULSIONS THEREOF” (priority 2006, published 2011).
# Assays:
# Assay in all cases: In vitro antimicrobial efficacy using time kill procedure (ASTM E 2315-03)
# Format in all cases: cell-based
# Settings in all cases: 1.0% concentration
# [1] = system: Candida Albicans—ATCC No. 10231
# Description: (§1) The following target organisms were included in the tests: E. Coli—ATCC No. 8739; Staphylococcus Aureus—ATCC No. 6538 and Candida Albicans—ATCC No. 10231. The initial inoculum counts for all the organisms were between 10^6 and 10^8 CFUs/ml.
# (§2) The testing procedure was according to ASTM E 2315-03 standards and protocols. The exposure times were 2 minutes and 10 minutes. Each test concentration was tested in duplicate and each sample was plated in duplicate.
# (§3) The log reduction expresses the efficacy of the antimicrobial formulation against the target organism. The final mean number of Colony Forming Units (CFUs) per ml of test solution at a given exposure time log 10 is calculated as follows:
# (§4) Mean No. of CFUs/ml ═Na=C/(n×D×V)
# (§5) • C=Total number of colonies counted on all plates • V=Sample volume used to prepare the pour plate (1 ml) • D=Dilution factor (0.01) • n=Number of plates taken into account • a=exposure time
# (§6) The mean log reduction is calculated using the equation: […]
# (§7) Mean log reduction log 10(NI×0.01)−log 10 (Na)
# (§8) Where NI is the initial organism count
# [2] = system: Staphylococcus Aureus—ATCC No. 6538
# Description: as §1, §2, §3, §4, §5, §6, §7, §8
# E. Coli—ATCC No. 8739 = system: E. Coli—ATCC No. 8739
# Description: as §1, §2, §3, §4, §5, §6, §7, §8
smiles,measurement,setting,value
"CC(O)C(=O)O (stereo not drawn) [LA 88, Lactic Acid 88%]","2 minute log reduction, Candida Albicans",[1]; 2 minutes exposure,2.69
same,"10 minute log reduction, Candida Albicans",[1]; 10 minutes exposure,2.79
same,"2 minute log reduction, S. Aureus",[2]; 2 minutes exposure,<2.0
same,"10 minute log reduction, S. Aureus",[2]; 10 minutes exposure,<2.0
same,"2 minute log reduction, E. Coli",E. Coli—ATCC No. 8739; 2 minutes exposure,2.36
same,"10 minute log reduction, E. Coli",E. Coli—ATCC No. 8739; 10 minutes exposure,2.41
